Results taken from patent US20090264433A1, “Compounds, Compositions and Methods Comprising Triazine Derivatives” (Institute for OneWorld Health, priority 2008, published 2009).
Where “and” joins values, the source holds several entries; their conditions need not be identical. Equal entries are not always repeated.

tested on: mice (CD1 strain), CTX-injected small intestinal loops; settings: mouse, in vivo

| SMILES | closed loop % inhibition |
| --- | --- |
| Oc1c(Br)cc(-c2cnc(OCc3ccc(Cl)cc3)nn2)cc1Br [Compound 20, 2,6-dibromo-4-(3-(4-chlorobenzyloxy)-1,2,4-triazin-6-yl)phenol] | 87.6% |
| Oc1c(Br)cc(-c2cnc(COc3cccc(Cl)c3Cl)nn2)cc1Br [Compound 30, 2,6-dibromo-4-(3-((2,3-dichlorophenoxy)methyl)-1,2,4-triazin-6-yl)phenol] | 94.4% |
| Oc1c(Cl)cc(-c2cnc(C(O)(c3ccccc3)c3ccccc3)nn2)cc1Cl [Compound 36, 2,6-dichloro-4-(3-(hydroxydiphenylmethyl)-1,2,4-triazin-6-yl)phenol] | 74.9% and 62.1% |
| Oc1c(Br)cc(-c2cnc(OCCc3ccccc3)nn2)cc1Br [Compound 96, 2,6-dibromo-4-(3-phenethoxy-1,2,4-triazin-6-yl)phenol] | 78.6% |
| Oc1c(Cl)cc(-c2cnc(OCc3ccccc3F)nn2)cc1Cl [Compound 127, 2,6-dichloro-4-(3-(2-fluorobenzyloxy)-1,2,4-triazin-6-yl)phenol] | 70.2% and 62.7% |
